Results: US10202367B2, “Heterocyclic compounds and methods of use thereof” (priority 2014, dated 2019)

Test system: not listed separately
Assay: Aqueous solubility in PBS
Type: physicochemical
Details: not given

Molecule | Sol.
Cc1cccc(C)c1-c1nc(CN2CCC(C(=O)NCCCN3C[C@H](C)C[C@H](C)C3)CC2)c(C)o1 [Compound 23] | 55.9 µg/mL
Cc1ccc(-c2nc(CN3CCC(C(=O)NCCCN4C[C@H](C)C[C@H](C)C4)CC3)c(C)o2)cc1C [Compound 22] | >71.0 µg/mL
Cc1oc(-c2ccc(Cl)cc2)nc1CN1CCC(C(=O)NCCCN2C[C@H](C)C[C@H](C)C2)CC1 [Compound 16] | >72.0 µg/mL
COc1cccc(Br)c1-c1nc(CN2CCC(C(=O)NCCCN3C[C@H](C)C[C@H](C)C3)CC2)c(C)o1 [Compound 40] | >83.0 µg/mL
Cc1ccccc1-c1nc(CN2CCC(C(=O)NCCCN3CCC(C)CC3)CC2)c(C)o1 [Compound 10] | >67.0 µg/mL
Cc1ccccc1-c1nc(CN2CCC(C(=O)NCCCN3CCCC(CC(C)C)C3)CC2)c(C)o1 (stereo not drawn) [Compound 53] | 54.9 µg/mL
Cc1ccccc1-c1nc(CN2CCC(C(=O)NCCCN3CCC(C(C)C)CC3)CC2)c(C)o1 [Compound 5] | >71.0 µg/mL
Cc1ccccc1-c1nc(CN2CCC(C(=O)NCCCN3C[C@H](C)C[C@H](C)C3)CC2)c(C)o1 [Compound 64] | >69.0 µg/mL
Cc1ccccc1-c1nc(CN2CCC(C(=O)NCCCN3[C@H](C)CCC[C@@H]3C)CC2)c(C)o1 [Compound 51] | >69.0 µg/mL
Cc1ccccc1-c1nc(CN2CCC(C(=O)NCCCN3CCC(C)(C)CC3)CC2)c(C)o1 [Compound 50] | >69.0 µg/mL
Cc1oc(-c2cccc3ccccc23)nc1CN1CCC(C(=O)NCCCN2C[C@H](C)C[C@H](C)C2)CC1 [Compound 31] | >74.0 µg/mL
COc1cccc(C)c1-c1nc(CN2CCC(C(=O)NCCCN3C[C@H](C)C[C@H](C)C3)CC2)c(C)o1 [Compound 45] | >73.0 µg/mL
Cc1oc(-c2ccccc2Cl)nc1CN1CCC(C(=O)NCCCN2C[C@H](C)C[C@H](C)C2)CC1 [Compound 15] | >72.0 µg/mL
Cc1oc(-c2c3ccccc3cc3ccccc23)nc1CN1CCC(C(=O)NCCCN2C[C@H](C)C[C@H](C)C2)CC1 [Compound 36] | 62.1 µg/mL
Cc1ccccc1-c1nc(CN2CCC(C(=O)NCCCCN3C[C@H](C)C[C@H](C)C3)CC2)c(C)o1 [Compound 21] | >71.0 µg/mL
Cc1ccccc1-c1nc(CN2CCC(C(=O)NCCCN3C[C@H](C)C[C@H](C)C3)CC2)c(C)o1 [Compound 29] | >69.0 µg/mL
Cc1oc(-c2c(Cl)cccc2C(F)(F)F)nc1CN1CCC(C(=O)NCCCN2C[C@H](C)C[C@H](C)C2)CC1 [Compound 44] | 65.1 µg/mL
Cc1ccccc1-c1nc(CN2CCC(C(=O)NCCCN3C[C@H](C)C[C@H](C)C3)CC2)c(C)o1 [Compound 27] | >69.0 µg/mL
CCc1ccccc1-c1nc(CN2CCC(C(=O)NCCCN3C[C@H](C)C[C@H](C)C3)CC2)c(C)o1 [Compound 17] | 55.9 µg/mL
Cc1ccccc1-c1nc(CN2CCC(C(=O)NCCCN3C[C@H](C)C[C@H](C)C3)CC2)c(C)o1 [Compound 28] | 54.8 µg/mL
Cc1cccc(Cl)c1-c1nc(CN2CCC(C(=O)NCCCN3CCC(C)(C)CC3)CC2)c(C)o1 [Compound 60] | >74 µg/mL
Cc1ccc2ccccc2c1-c1nc(CN2CCC(C(=O)NCCCN3C[C@H](C)C[C@H](C)C3)CC2)c(C)o1 [Compound 39] | >76.0 µg/mL
COc1cccc(F)c1-c1nc(CN2CCC(C(=O)NCCCN3C[C@H](C)C[C@H](C)C3)CC2)c(C)o1 [Compound 38] | >74.0 µg/mL
Cc1ccccc1-c1nc(CN2CCC(C(=O)NCCN3C[C@H](C)C[C@H](C)C3)CC2)c(C)o1 [Compound 20] | >67.0 µg/mL
Cc1ccccc1-c1nc(CN2CCC(C(=O)N3CCN(C4CCN(C)CC4)CC3)CC2)c(C)o1 [Compound 13] | >71.0 µg/mL
Cc1ccccc1-c1nc(CN2CCC(C(=O)NCCCN3C[C@H](C)C[C@H](C)C3)CC2)c(C)o1 [Compound 25] | >69.0 µg/mL
Cc1ccc(C)c(-c2nc(CN3CCC(C(=O)NCCCN4C[C@H](C)C[C@H](C)C4)CC3)c(C)o2)c1 [Compound 34] | 56.1 µg/mL

Molecule | Sol.
Cc1ccccc1-c1nc(CN2CCC(C(=O)NCCCN3C[C@H](C)C[C@H](C)C3)CC2)c(C)s1 [Compound 65] | >71.0 µg/mL
Cc1cccc(Cl)c1-c1nc(CN2CCC(C(=O)NCCCN3CCC(C(C)C)CC3)CC2)c(C)o1 [Compound 61] | >76 µg/mL
Cc1ccccc1-c1nc(CN2CCC(C(=O)NCCCN3C[C@H](C)C[C@H](C)C3)CC2)c(C)o1 [Compound 63] | 54.8 µg/mL
COc1cccc(Cl)c1-c1nc(CN2CCC(C(=O)NCCCN3C[C@H](C)C[C@H](C)C3)CC2)c(C)o1 [Compound 42] | >76.0 µg/mL
Cc1cc(C)cc(-c2nc(CN3CCC(C(=O)NCCCN4C[C@H](C)C[C@H](C)C4)CC3)c(C)o2)c1 [Compound 4] | >71.0 µg/mL
Cc1ccccc1-c1nc(CN2CCC(C(=O)NCCCN3CCCC(C(C)C)C3)CC2)c(C)o1 (stereo not drawn) [Compound 52] | >71 µg/mL
Cc1cccc(Cl)c1-c1nc(CN2CCC(C(=O)NCCCN3CCCC(C)C3)CC2)c(C)o1 (stereo not drawn) [Compound 59] | 52.6 µg/mL
Cc1oc(-c2c(F)cccc2Cl)nc1CN1CCC(C(=O)NCCCN2C[C@H](C)C[C@H](C)C2)CC1 [Compound 33] | >75.0 µg/mL
Cc1ccc(-c2nc(CN3CCC(C(=O)NCCCN4C[C@H](C)C[C@H](C)C4)CC3)c(C)o2)c(C)c1 [Compound 32] | >71.0 µg/mL
Cc1ccc2ccccc2c1-c1nc(CN2CCC(C(=O)NCCCN3C[C@H](C)C[C@H](C)C3)CC2)c(C)o1 [Compound 62] | >76.1 µg/mL
Cc1cccc(F)c1-c1nc(CN2CCC(C(=O)NCCCN3C[C@H](C)C[C@H](C)C3)CC2)c(C)o1 [Compound 46] | >72.0 µg/mL
Cc1ccccc1-c1nc(CN2CCC(C(=O)NCCCN3CC4CCCC(C4)C3)CC2)c(C)o1 [Compound 54] | > .71 µg/mL
Cc1cccc(-c2nc(CN3CCC(C(=O)NCCCN4C[C@H](C)C[C@H](C)C4)CC3)c(C)o2)c1 [Compound 18] | >69.0 µg/mL
Cc1ccccc1-c1nc(CN2CCC(C(=O)NCCCN3CCCC(C)C3)CC2)c(C)o1 (stereo not drawn) [Compound 6] | >67.0 µg/mL
Cc1ccccc1-c1nc(CN2CCC(C(=O)NCCCN3CCOCC3)CC2)c(C)o1 [Compound 12] | >65.0 µg/mL
Cc1ccccc1-c1nc(CN2CCC(C(=O)NCCCN3C[C@H](C)C[C@@H](C)C3)CC2)c(C)o1 [Compound 47] | >69.0 µg/mL
Cc1oc(-c2c(F)cccc2F)nc1CN1CCC(C(=O)NCCCN2C[C@H](C)C[C@H](C)C2)CC1 [Compound 30] | >72.0 µg/mL
COc1cccc(OC)c1-c1nc(CN2CCC(C(=O)NCCCN3C[C@H](C)C[C@H](C)C3)CC2)c(C)o1 [Compound 37] | >76.0 µg/mL
Cc1ccccc1-c1nc(CN2CCC(C(=O)NCCCN3CCCCC3)CC2)c(C)o1 [Compound 9] | >65.0 µg/mL
Cc1ccccc1-c1nc(CN2CCC(C(=O)N3CCN(CCN(C)C)CC3)CC2)c(C)o1 [Compound 14] | >67.0 µg/mL
Cc1oc(-c2c(Cl)cccc2Br)nc1CN1CCC(C(=O)NCCCN2C[C@H](C)C[C@H](C)C2)CC1 [Compound 41] | >83.0 µg/mL
Cc1oc(-c2cccc(Cl)c2)nc1CN1CCC(C(=O)NCCCN2C[C@H](C)C[C@H](C)C2)CC1 [Compound 24] | >72.0 µg/mL
Cc1cc(-c2nc(CN3CCC(C(=O)NCCCN4C[C@H](C)C[C@H](C)C4)CC3)co2)ccc1F [Compound 70] | >70 µg/mL
Cc1ccccc1-c1nc(CN2CCC(C(=O)NCCCN3C[C@H](C)C[C@H](C)C3)CC2)c(C)o1 [Compound 26] | >69.0 µg/mL
Cc1cc(-c2nc(CN3CCC(C(=O)NCCCN4CCC(C(C)C)CC4)CC3)co2)ccc1F [Compound 71] | >72 µg/mL
Cc1ccc(-c2nc(CN3CCC(C(=O)NCCCN4C[C@H](C)C[C@H](C)C4)CC3)c(C)o2)cc1 [Compound 19] | >69.0 µg/mL

Same assay, conditions: pH 7.4

Molecule | Sol.
Cc1oc(-c2c(Br)cccc2Br)nc1CN1CCC(C(=O)NCCCN2C[C@H](C)C[C@H](C)C2)CC1 [Compound 43] | 62.4 µg/mL
Cc1oc(-c2c(Cl)cccc2Cl)nc1CN1CCC(C(=O)NCCCN2C[C@H](C)C[C@H](C)C2)CC1 [Compound 35] | >77.0 µg/mL

Test system: HCVcc-RLuc
Assay: HCVcc-RLuc assay, combination of compound 3 with anti-HCV drugs (CalcuSyn / MacSynergy II)
Type: cell-based, Hepatitis C virus
Details: not given

Molecule | CalcuSyn CI value (combination index) | CalcuSyn synergy volume (level of synergy) | MacSynergy synergy volume (level of synergy)
CCC[C@H](NC(=O)[C@@H]1[C@H]2CCC[C@H]2CN1C(=O)[C@@H](NC(=O)[C@@H](NC(=O)c1cnccn1)C1CCCCC1)C(C)(C)C)C(=O)C(=O)NC1CC1 [Telaprevir] | 0.775 | ++ (key: +/−: nearly additive (0.9 < CI < 1.1); ++: moderate synergy (0.7 < CI < 0.85); +++: synergy (0.3 < CI < 0.7)) | +++ (key: ++: moderate synergy (5 < log volume < 9); +++: strong synergy (log volume > 9))
IFN-α | 0.545 | +++ (key: +/−: nearly additive (0.9 < CI < 1.1); ++: moderate synergy (0.7 < CI < 0.85); +++: synergy (0.3 < CI < 0.7)) | 

Same assay, conditions: tested drug combined with compound 3 (SID 144187742)

Molecule | CalcuSyn synergy volume (level of synergy)
C[C@@]1(O)[C@H](O)[C@@H](CO)O[C@H]1n1ccc(N)nc1=O [2′-C-methylcytidine] | +/− (nearly additive (0.9 < CI < 1.1))

Same assay, conditions: tested drug combined with compound 3 (SID 144187742) at or near their EC50 values; mean ± SEM, n ≥ 6

Molecule | CalcuSyn CI value (combination index)
C[C@@]1(O)[C@H](O)[C@@H](CO)O[C@H]1n1ccc(N)nc1=O [2′-C-methylcytidine] | 1.10

Same assay, conditions: tested drug combined with compound 3; Bliss independence model, MacSynergy II

Molecule | MacSynergy synergy volume (level of synergy)
C[C@@]1(O)[C@H](O)[C@@H](CO)O[C@H]1n1ccc(N)nc1=O [2′-C-methylcytidine] | +++ (strong synergy (log volume > 9))
